# In ChEMBL document CHEMBL3046833, “Six new triterpenoid saponins from the leaves of Ilex oblonga and their inhibitory activities against TMV replication” (Chem Pharm Bull (Tokyo), 2007):
# Columns and labels:
# [1] = system: Tobacco mosaic virus; experiment: Antiviral activity against Tobacco mosaic virus (TMV) assessed as inhibition of viral replication at 0.2 mg/ml after 48 hr by leaf disk method relative to control; assay type: functional
# [2] = system: Tobacco mosaic virus; experiment: Antiviral activity against Tobacco mosaic virus (TMV) assessed as inhibition of viral replication at 0.025 mg/ml after 48 hr by leaf disk method relative to control; assay type: functional
# [3] = system: Tobacco mosaic virus; experiment: Antiviral activity against Tobacco mosaic virus (TMV) assessed as inhibition of viral replication after 48 hr by leaf disk method; assay type: functional, organism-based
# [4] = system: Tobacco mosaic virus; experiment: Antiviral activity against Tobacco mosaic virus (TMV) assessed as inhibition of viral replication at 0.4 mg/ml after 48 hr by leaf disk method relative to control; assay type: functional
# [5] = system: Tobacco mosaic virus; experiment: Antiviral activity against Tobacco mosaic virus (TMV) assessed as inhibition of viral replication at 0.1 mg/ml after 48 hr by leaf disk method relative to control; assay type: functional
# [6] = system: Tobacco mosaic virus; experiment: Antiviral activity against Tobacco mosaic virus (TMV) assessed as inhibition of viral replication at 0.05 mg/ml after 48 hr by leaf disk method relative to control; assay type: functional
SMILES,inhibition at 200 µg/mL [1],also measured
CC1=C(C)[C@H]2C3=CC[C@@H]4[C@@]5(C)CC[C@H](O)[C@@](C)(CO)[C@@H]5CC[C@@]4(C)[C@]3(C)CC[C@@]2(C(=O)O[C@@H]2O[C@H](CO)[C@@H](O)[C@H](O)[C@H]2O)CC1,41.1%,
CC1=C2C3=CC[C@@H]4[C@@]5(C)CC[C@H](O)[C@@](C)(CO)[C@@H]5CC[C@@]4(C)[C@]3(C)CC[C@@]2(C(=O)O[C@@H]2O[C@H](CO)[C@@H](O)[C@H](O)[C@H]2O)CC[C@H]1C,47.3%,
CC1=C2C3=CC[C@@H]4[C@@]5(C)CC[C@H](O[C@@H]6OC[C@@H](O)[C@H](O)[C@H]6O)C(C)(C)[C@@H]5CC[C@@]4(C)[C@]3(C)CC[C@@]2(C(=O)O[C@@H]2O[C@H](CO)[C@@H](O)[C@H](O)[C@H]2O)CC[C@H]1C,33%,
C=C1C2C3=CC[C@@H]4[C@@]5(C)CC[C@H](O)[C@@](C)(CO)[C@@H]5CC[C@@]4(C)[C@]3(C)CC[C@@]2(C(=O)O[C@@H]2O[C@H](CO)[C@@H](O)[C@H](O)[C@H]2O)CC[C@H]1C (stereo not given in full),29.6%,
CC1=C2C3=CC[C@@H]4[C@@]5(C)CC[C@H](O[C@@H]6OC[C@@H](O)[C@H](O)[C@H]6O)[C@@](C)(CO)[C@@H]5CC[C@@]4(C)[C@]3(C)CC[C@@]2(C(=O)O[C@@H]2O[C@H](CO)[C@@H](O)[C@H](O)[C@H]2O)CC[C@H]1C [OBLONGANOSIDE C],38.6%,
C=C1C2C3=CC[C@@H]4[C@@]5(C)CC[C@H](O[C@@H]6OC[C@@H](O)[C@H](O)[C@H]6O)C(C)(C)[C@@H]5CC[C@@]4(C)[C@]3(C)CC[C@@]2(C(=O)O[C@@H]2O[C@H](CO)[C@@H](O)[C@H](O)[C@H]2O)CC[C@H]1C (stereo not given in full) [OBLONGANOSIDE D],37.7%,
CC1=C(C)[C@H]2C3=CC[C@@H]4[C@@]5(C)CC[C@@H]6O[C@H](CO)OC[C@@]6(C)[C@@H]5CC[C@@]4(C)[C@]3(C)CC[C@@]2(C(=O)O[C@@H]2O[C@H](CO)[C@@H](O)[C@H](O)[C@H]2O)CC1 [Oblonganoside A],80.3%,inhibition at 25 µg/mL [2]: 10.1%; EC50 [3]: 74 µg/mL; Imax [4]: 87.3%; inhibition at 100 µg/mL [5]: 61.9%; inhibition at 50 µg/mL [6]: 30.1%
CC1=C(C)[C@H]2C3=CC[C@@H]4[C@@]5(C)CC[C@H](O[C@@H]6OC[C@@H](O)[C@H](O)[C@H]6O)C(C)(C)[C@@H]5CC[C@@]4(C)[C@]3(C)CC[C@@]2(C(=O)O[C@@H]2O[C@H](CO)[C@@H](O)[C@H](O)[C@H]2O)CC1 [Oblonganoside B],56.4%,
C=C1CC[C@]2(C(=O)O[C@@H]3O[C@H](CO)[C@@H](O)[C@H](O)[C@H]3O)CC[C@]3(C)C(=CC[C@@H]4[C@@]5(C)CC[C@H](O)[C@@](C)(CO)[C@@H]5CC[C@]43C)C2[C@]1(C)O (stereo not given in full) [Oblonganoside E],21.5%,
C=C1CC[C@]2(C(=O)O[C@@H]3O[C@H](CO)[C@@H](O)[C@H](O)[C@H]3O)CC[C@]3(C)C(=CC[C@@H]4[C@@]5(C)CC[C@H](O[C@@H]6OC[C@@H](O)[C@H](O)[C@H]6O)C(C)(C)[C@@H]5CC[C@]43C)C2[C@]1(C)O (stereo not given in full) [Oblonganoside F],39.7%,
